{"source": "patent US9738634B2", "about": "“Heterocyclic amide compound and herbicide” (SYNGENTA PARTICIPATIONS AG, priority 2013, dated 2017)", "type_in_all_cases": "in vivo", "conditions_in_all_cases": "treatment dosage 320 g/ha", "key": {"barnyard grass [1]": {"system": "barnyard grass", "test": "Test Example 1: weedkilling efficacy, preemergent weed treatment in the submerged state; A: barnyard grass", "in_short": "(§1)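 Pots of alluvial soil flooded 4 cm deep, sown with barnyard grass, bulrush and oval-leafed pondweed and transplanted with 2.5-leaf rice. Emulsified compound applied to the water surface on sowing day at stated g/ha; greenhouse 25–30 °C, effects assessed 3 weeks after treatment.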"}, "fig-leafed goosefoot [2]": {"system": "fig-leafed goosefoot", "test": "Test Example 4: weedkilling efficacy by foliar treatment; M: fig-leafed goosefoot", "in_short": "(§2)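 Seeds are spot-sown into sterilized diluvial soil and covered with about 1.5 cm of soil. After 14 days' greenhouse growth at 25 to 30° C, plants are sprayed on stems and leaves with diluted emulsion at the stated g/ha rate, then scored at 3 weeks.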"}, "Indian mallow [3]": {"system": "Indian mallow", "test": "Test Example 3: weedkilling efficacy through soil treatment; K: Indian mallow", "in_short": "(§3)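 Crop and weed responses were judged three weeks after a uniform surface spray of the water-diluted emulsion at the given g/ha rate. Seeds sat beneath about 1.5 cm of sterilized diluvial soil, and boxes stood in a greenhouse at 25 to 30° C.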"}, "common wind-grass [4]": {"system": "common wind-grass", "test": "Test Example 3: weedkilling efficacy through soil treatment; J: common wind-grass", "in_short": "as §3"}, "oval-leafed pondweed [5]": {"system": "oval-leafed pondweed", "test": "Test Example 1: weedkilling efficacy, preemergent weed treatment in the submerged state; C: oval-leafed pondweed", "in_short": "as §1"}, "catchweed [6]": {"system": "catchweed", "test": "Test Example 4: weedkilling efficacy by foliar treatment; O: catchweed", "in_short": "as §2"}, "beet [7]": {"system": "beet", "test": "Test Example 4: foliar treatment, effect on crop; f: beet", "in_short": "as §2"}, "black-grass [8]": {"system": "black-grass", "test": "Test Example 3: weedkilling efficacy through soil treatment; H: black-grass", "in_short": "as §3"}, "Italian ryegrass [9]": {"system": "Italian ryegrass", "test": "Test Example 4: weedkilling efficacy by foliar treatment; I: Italian ryegrass", "in_short": "as §2"}, "corn [10]": {"system": "corn", "test": "Test Example 4: foliar treatment, effect on crop; c: corn", "in_short": "as §2"}, "redroot pigweed [11]": {"system": "redroot pigweed", "test": "Test Example 4: weedkilling efficacy by foliar treatment; L: redroot pigweed", "in_short": "as §2"}, "transplanted rice": {"system": "transplanted rice", "test": "Test Example 1: preemergent weed treatment in the submerged state, effect on crop; a: transplanted rice", "in_short": "as §1"}, "wild oat [12]": {"system": "wild oat", "test": "Test Example 3: weedkilling efficacy through soil treatment; G: wild oat", "in_short": "as §3"}, "catchweed [13]": {"system": "catchweed", "test": "Test Example 3: weedkilling efficacy through soil treatment; O: catchweed", "in_short": "as §3"}, "bulrush [14]": {"system": "bulrush", "test": "Test Example 1: weedkilling efficacy, preemergent weed treatment in the submerged state; B: bulrush", "in_short": "as §1"}, "wheat [15]": {"system": "wheat", "test": "Test Example 4: foliar treatment, effect on crop; e: wheat", "in_short": "as §2"}, "soybean [16]": {"system": "soybean", "test": "Test Example 3: soil treatment, effect on crop; d: soybean", "in_short": "as §3"}, "fig-leafed goosefoot [17]": {"system": "fig-leafed goosefoot", "test": "Test Example 3: weedkilling efficacy through soil treatment; M: fig-leafed goosefoot", "in_short": "as §3"}, "common wind-grass [18]": {"system": "common wind-grass", "test": "Test Example 4: weedkilling efficacy by foliar treatment; J: common wind-grass", "protocol": "Testing of Weedkilling Efficacy by Foliar Treatment\nSterilized diluvial soil was introduced into 21 cm long, 13 cm wide, 7 cm deep plastic boxes, and seeds of crabgrass, green foxtail, barnyard grass, wild oat, black-grass, Italian ryegrass, common wind-grass, Indian mallow, redroot pigweed, fig-leafed goosefoot, chickweed, catchweed, birds-eye speedwell, corn, soybean, rice, wheat, beet and rapeseed were each spot-sown, and covered with about 1.5 cm of soil, then the plants were grown in a greenhouse at 25 to 30° C.\nAfter they had grown for 14 days, emulsions of compounds of the present invention prepared according to compounding example 2 were diluted with water to give the specified dosages, and applied uniformly onto the stem and leaf parts with a small sprayer. 3 weeks after the pesticide treatment the effect on each type of plant was investigated on the basis of the assessment criteria of test example 1.\nA: barnyard grass, B: bulrush, C: oval-leafed pondweed, D: crabgrass, E: green foxtail, F: barnyard grass, G: wild oat, H: black-grass, I: Italian ryegrass, J: common wind-grass, K: Indian mallow, L: redroot pigweed, M: fig-leafed goosefoot, N: chickweed, O: catchweed, p: birds-eye speedwell, a: transplanted rice, b: directly sown rice, c: corn, d: soybean, e: wheat, f: beet, g: rapeseed\nFurther, pesticide dosage (g/ha) indicates the concentration regulated such that treatment was with only the stated number of grams (g), when calculated per hectare (ha)."}, "Indian mallow [19]": {"system": "Indian mallow", "test": "Test Example 4: weedkilling efficacy by foliar treatment; K: Indian mallow", "in_short": "as §2"}, "oval-leafed pondweed [20]": {"system": "oval-leafed pondweed", "test": "Test Example 2: weedkilling efficacy, growth period weed treatment in the submerged state; C: oval-leafed pondweed", "in_short": "(§4)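 Barnyard grass, bulrush and oval-leafed pondweed sown in alluvial soil under 4 cm flooding, greenhouse 25 to 30° C. At 1-2 leaf stage, water-diluted emulsion applied to the water surface at stated g/ha dosages; effects scored 3 weeks later.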"}, "Italian ryegrass [21]": {"system": "Italian ryegrass", "test": "Test Example 3: weedkilling efficacy through soil treatment; I: Italian ryegrass", "in_short": "as §3"}, "soybean [22]": {"system": "soybean", "test": "Test Example 4: foliar treatment, effect on crop; d: soybean", "in_short": "as §2"}, "wild oat [23]": {"system": "wild oat", "test": "Test Example 4: weedkilling efficacy by foliar treatment; G: wild oat", "in_short": "as §2"}, "beet [24]": {"system": "beet", "test": "Test Example 3: soil treatment, effect on crop; f: beet", "in_short": "as §3"}, "wheat [25]": {"system": "wheat", "test": "Test Example 3: soil treatment, effect on crop; e: wheat", "in_short": "as §3"}, "redroot pigweed [26]": {"system": "redroot pigweed", "test": "Test Example 3: weedkilling efficacy through soil treatment; L: redroot pigweed", "in_short": "as §3"}, "black-grass [27]": {"system": "black-grass", "test": "Test Example 4: weedkilling efficacy by foliar treatment; H: black-grass", "in_short": "as §2"}, "chickweed [28]": {"system": "chickweed", "test": "Test Example 4: weedkilling efficacy by foliar treatment; N: chickweed", "in_short": "as §2"}, "chickweed [29]": {"system": "chickweed", "test": "Test Example 3: weedkilling efficacy through soil treatment; N: chickweed", "in_short": "as §3"}, "barnyard grass [30]": {"system": "barnyard grass", "test": "Test Example 2: weedkilling efficacy, growth period weed treatment in the submerged state; A: barnyard grass", "in_short": "as §4"}, "corn [31]": {"system": "corn", "test": "Test Example 3: soil treatment, effect on crop; c: corn", "in_short": "as §3"}, "bulrush [32]": {"system": "bulrush", "test": "Test Example 2: weedkilling efficacy, growth period weed treatment in the submerged state; B: bulrush", "in_short": "as §4"}, "birds-eye speedwell": {"system": "birds-eye speedwell", "test": "Test Example 4: weedkilling efficacy by foliar treatment; p: birds-eye speedwell", "in_short": "as §2"}}}
{"smiles": "COC(=O)c1ccnc(NC(=O)C(C)(C)N2COC(C)=C(c3ccccc3)C2=O)c1", "note": "[B-2-61]", "values": [{"measurement": "A (barnyard grass) weedkilling efficacy grade", "setting": "barnyard grass [1]", "result": "0 (weed kill ratio 5% or less (practically no effect))"}, {"measurement": "M (fig-leafed goosefoot) weedkilling efficacy grade", "setting": "fig-leafed goosefoot [2]", "result": "0 (weed kill ratio 5% or less (practically no effect))"}, {"measurement": "K (Indian mallow) weedkilling efficacy grade", "setting": "Indian mallow [3]", "result": "0 (weed kill ratio 5% or less (practically no effect))"}, {"measurement": "J (common wind-grass) weedkilling efficacy grade", "setting": "common wind-grass [4]", "result": "5 (weed kill ratio 90% or more, (practically complete withering))"}, {"measurement": "C (oval-leafed pondweed) weedkilling efficacy grade", "setting": "oval-leafed pondweed [5]", "result": "4 (weed kill ratio 70% or more, less than 90%)"}, {"measurement": "O (catchweed) weedkilling efficacy grade", "setting": "catchweed [6]", "result": "0 (weed kill ratio 5% or less (practically no effect))"}, {"measurement": "f (beet) effect on crop grade", "setting": "beet [7]", "result": "2 (weed kill ratio 20% or more, less than 40%)"}, {"measurement": "H (black-grass) weedkilling efficacy grade", "setting": "black-grass [8]", "result": "4 (weed kill ratio 70% or more, less than 90%)"}, {"measurement": "I (Italian ryegrass) weedkilling efficacy grade", "setting": "Italian ryegrass [9]", "result": "0 (weed kill ratio 5% or less (practically no effect))"}, {"measurement": "c (corn) effect on crop grade", "setting": "corn [10]", "result": "0 (weed kill ratio 5% or less (practically no effect))"}, {"measurement": "L (redroot pigweed) weedkilling efficacy grade", "setting": "redroot pigweed [11]", "result": "0 (weed kill ratio 5% or less (practically no effect))"}, {"measurement": "a (transplanted rice) effect on crop grade", "setting": "transplanted rice", "result": "0 (weed kill ratio 5% or less (practically no effect))"}, {"measurement": "G (wild oat) weedkilling efficacy grade", "setting": "wild oat [12]", "result": "0 (weed kill ratio 5% or less (practically no effect))"}, {"measurement": "O (catchweed) weedkilling efficacy grade", "setting": "catchweed [13]", "result": "0 (weed kill ratio 5% or less (practically no effect))"}, {"measurement": "B (bulrush) weedkilling efficacy grade", "setting": "bulrush [14]", "result": "0 (weed kill ratio 5% or less (practically no effect))"}, {"measurement": "e (wheat) effect on crop grade", "setting": "wheat [15]", "result": "0 (weed kill ratio 5% or less (practically no effect))"}, {"measurement": "d (soybean) effect on crop grade", "setting": "soybean [16]", "result": "0 (weed kill ratio 5% or less (practically no effect))"}, {"measurement": "M (fig-leafed goosefoot) weedkilling efficacy grade", "setting": "fig-leafed goosefoot [17]", "result": "0 (weed kill ratio 5% or less (practically no effect))"}, {"measurement": "J (common wind-grass) weedkilling efficacy grade", "setting": "common wind-grass [18]", "result": "1 (weed kill ratio 5% or more, less than 20%)"}, {"measurement": "K (Indian mallow) weedkilling efficacy grade", "setting": "Indian mallow [19]", "result": "0 (weed kill ratio 5% or less (practically no effect))"}, {"measurement": "C (oval-leafed pondweed) weedkilling efficacy grade", "setting": "oval-leafed pondweed [20]", "result": "2 (weed kill ratio 20% or more, less than 40%)"}, {"measurement": "I (Italian ryegrass) weedkilling efficacy grade", "setting": "Italian ryegrass [21]", "result": "2 (weed kill ratio 20% or more, less than 40%)"}, {"measurement": "d (soybean) effect on crop grade", "setting": "soybean [22]", "result": "0 (weed kill ratio 5% or less (practically no effect))"}, {"measurement": "G (wild oat) weedkilling efficacy grade", "setting": "wild oat [23]", "result": "0 (weed kill ratio 5% or less (practically no effect))"}, {"measurement": "f (beet) effect on crop grade", "setting": "beet [24]", "result": "0 (weed kill ratio 5% or less (practically no effect))"}, {"measurement": "e (wheat) effect on crop grade", "setting": "wheat [25]", "result": "0 (weed kill ratio 5% or less (practically no effect))"}, {"measurement": "L (redroot pigweed) weedkilling efficacy grade", "setting": "redroot pigweed [26]", "result": "0 (weed kill ratio 5% or less (practically no effect))"}, {"measurement": "H (black-grass) weedkilling efficacy grade", "setting": "black-grass [27]", "result": "0 (weed kill ratio 5% or less (practically no effect))"}, {"measurement": "N (chickweed) weedkilling efficacy grade", "setting": "chickweed [28]", "result": "0 (weed kill ratio 5% or less (practically no effect))"}, {"measurement": "N (chickweed) weedkilling efficacy grade", "setting": "chickweed [29]", "result": "0 (weed kill ratio 5% or less (practically no effect))"}, {"measurement": "A (barnyard grass) weedkilling efficacy grade", "setting": "barnyard grass [30]", "result": "0 (weed kill ratio 5% or less (practically no effect))"}, {"measurement": "c (corn) effect on crop grade", "setting": "corn [31]", "result": "0 (weed kill ratio 5% or less (practically no effect))"}, {"measurement": "B (bulrush) weedkilling efficacy grade", "setting": "bulrush [32]", "result": "2 (weed kill ratio 20% or more, less than 40%)"}, {"measurement": "P (birds-eye speedwell) weedkilling efficacy grade", "setting": "birds-eye speedwell", "result": "2 (weed kill ratio 20% or more, less than 40%)"}]}
